Measured values taken from patent US12653815B2, “Luminally-acting N-(piperidin-4-yl)benzamide derivatives” (Takeda Pharmaceutical Company Limited, priority 2020, dated 2026).

molecular target: T1, human 5-HT4(b) receptor (Homo sapiens, UniProt Q13639); test: 5-HT4(b) agonist assay (cAMP accumulation); type: cell-based; details: CHO-K1 cells overexpressing full-length human 5-HT4(b) receptor; cAMP accumulation after 30 minutes at room temperature; 1 μM 5-HT as 100% activity
T1 construct: overexpressing the full-length human 5-HT4(b) receptor with an N-terminal FLAG tag; FLAG (N); host or cells: CHO-K1
T1 sequence (Q13639 whole entry): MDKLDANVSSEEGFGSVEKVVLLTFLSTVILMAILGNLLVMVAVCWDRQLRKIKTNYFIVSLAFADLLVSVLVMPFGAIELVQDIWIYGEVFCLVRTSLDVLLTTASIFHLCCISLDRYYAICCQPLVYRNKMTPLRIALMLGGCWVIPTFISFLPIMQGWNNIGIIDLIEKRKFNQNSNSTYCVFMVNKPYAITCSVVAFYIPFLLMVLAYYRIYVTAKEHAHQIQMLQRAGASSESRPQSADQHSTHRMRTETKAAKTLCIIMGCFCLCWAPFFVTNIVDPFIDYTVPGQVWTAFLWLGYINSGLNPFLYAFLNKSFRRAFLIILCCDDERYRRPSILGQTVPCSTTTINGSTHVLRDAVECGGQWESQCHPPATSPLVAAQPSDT
Protocol: One may determine the activity of the compounds of Formula 1 using a variety of methods, including in vitro and in vivo methods. The ability of the example compounds to activate the 5-HT4(b) receptor may be determined using the following assay.
Chinese hamster ovary (CHO-K1) cells overexpressing the full-length human 5-HT4(b) receptor with an N-terminal FLAG tag (Multispan Inc, Hayward, CA) are cultured per the manufacturer's protocol in 1:1 DMEM/F12 (Thermo Fisher, Waltham, MA) with 10% fetal bovine serum (GE Healthcare, Pittsburgh, PA) and 10 μg/mL puromycin (Thermo Fisher, Waltham, MA), and stored in frozen aliquots to be used as assay ready cells. On the day of the assay, cells are removed from frozen storage, washed two times in 1× Kreb's Ringer Buffer (Zenbio, Research Triangle Park, NC), and re-suspended to a concentration of 4×10^6 cells/mL in 1× Kreb's Ringer Buffer. Test compound (50 nL) in 100% DMSO is acoustically dispensed in low volume, white, 384-well polypropylene plates (Corning, Tewksbury, MA), followed by the addition of 4×10^4 cells per well in a total volume of 10 μL. Cells are incubated with test compound for 30 minutes at room temperature in the dark, and cAMP accumulation is measured using the Cisbio HiRange cAMP assay kit (Bedford, MA) per the manufacturer's protocol. Anti-cAMP antibody and d2-cAMP tracer reagents diluted in lysis/detection buffer are incubated in the dark for 1 hour, and results are measured on a Pherastar plate reader (BMG Labtech, Ortenberg, Germany). Data are normalized using 1 μM 5-HT (Sigma Aldrich, St. Louis, MO) as 100% activity, and DMSO alone as 0% activity.
The ability of the example compounds to activate the 5-HT4(b) receptor was evaluated using the assay described in the Biological Activity section. Table 1, below, lists EC50 from the 5-HT4(b) agonist assay for each of the example compounds, where smaller EC50 values represent higher potency.

Row | EC50 [nM] | Structure (SMILES)
1 | 12.6 | Nc1c(Cl)cc(C(=O)NC2CCN(CCCCCC(=O)NCCCCCC(=O)NC[C@H](O)[C@@H](O)[C@H](O)[C@H](O)CO)CC2)c2c1CCO2 [Example 33, 4-amino-5-chloro-N-(1-(6-oxo-6-((6-oxo-6-(((2S,3R,4R,5R)-2,3,4,5,6-pentahydroxyhexyl)amino)hexyl)amino)hexyl)piperidin-4-yl)-2,3-dihydrobenzofuran-7-carboxamide]
2 | 19.8 | COc1cc(N)c(Cl)cc1C(=O)N[C@@H]1CCN(CCCCCC(=O)NC[C@H](O)[C@@H](O)[C@H](O)[C@H](O)CO)C[C@@H]1OC [Example 1, 4-amino-5-chloro-2-methoxy-N-((3S,4R)-3-methoxy-1-(6-oxo-6-(((2S,3R,4R,5R)-2,3,4,5,6-pentahydroxyhexyl)amino)hexyl)piperidin-4-yl)benzamide]
3 | 15.3 | Nc1c(Cl)cc(C(=O)NC2CCN(CCCCCC(=O)NCCCC(=O)NC[C@H](O)[C@@H](O)[C@H](O)[C@H](O)CO)CC2)c2c1CCO2 [Example 34, 4-amino-5-chloro-N-(1-(6-oxo-6-((4-oxo-4-(((2S,3R,4R,5R)-2,3,4,5,6-pentahydroxyhexyl)amino)butyl)amino)hexyl)piperidin-4-yl)-2,3-dihydrobenzofuran-7-carboxamide]
4 | 14.6 | COc1cc(N)c(Cl)cc1C(=O)N[C@@H]1CCN(CCCCCC(=O)N[C@@H]2CCCN(CCCCCCCC(=O)NC[C@H](O)[C@@H](O)[C@H](O)[C@H](O)CO)C2)C[C@@H]1OC [Example 12, 4-amino-5-chloro-2-methoxy-N-((3S,4R)-3-methoxy-1-(6-oxo-6-(((R)-1-(8-oxo-8-(((2S,3R,4R,5R)-2,3,4,5,6-pentahydroxyhexyl)amino)octyl)piperidin-3-yl)amino)hexyl)piperidin-4-yl)benzamide]
5 | 2.5 | Nc1c(Cl)cc(C(=O)NCC2CCN(CC3CCN(CCCCCCCCCCC(=O)NC[C@H](O)[C@@H](O)[C@H](O)[C@H](O)CO)CC3)CC2)c2c1CCO2 [Example 36, 4-amino-5-chloro-N-((1-((1-(11-oxo-11-(((2S,3R,4R,5R)-2,3,4,5,6-pentahydroxyhexyl)amino)undecyl)piperidin-4-yl)methyl)piperidin-4-yl)methyl)-2,3-dihydrobenzofuran-7-carboxamide]
6 | 27.6 | COc1cc(N)c(Cl)cc1C(=O)N[C@@H]1CCN(CCCC(C)CC(=O)NCCCCCCCC(=O)NC[C@H](O)[C@@H](O)[C@H](O)[C@H](O)CO)C[C@@H]1OC (stereo partly drawn) [Example 21, 4-amino-5-chloro-2-methoxy-N-((3S,4R)-3-methoxy-1-(4-methyl-6-oxo-6-((8-oxo-8-(((2S,3R,4R,5R)-2,3,4,5,6-pentahydroxyhexyl)amino)octyl)amino)hexyl)piperidin-4-yl)benzamide]
7 | 8.1 | COc1cc(N)c(Cl)cc1C(=O)N[C@@H]1CCN(CCCCCC(=O)NC2CCN(CCCCCC(=O)NC[C@H](O)[C@@H](O)[C@H](O)[C@H](O)CO)CC2)C[C@@H]1OC [Example 9, 4-amino-5-chloro-2-methoxy-N-((3S,4R)-3-methoxy-1-(6-oxo-6-((1-(6-oxo-6-(((2S,3R,4R,5R)-2,3,4,5,6-pentahydroxyhexyl)amino)hexyl)piperidinyl)amino)hexyl)piperidin-4-yl)benzamide]
8 | 202 | COc1cc(N)c(Cl)cc1C(=O)N[C@@H]1CCN(CCOCCC(=O)NCCCCCCCC(=O)NC[C@H](O)[C@@H](O)[C@H](O)[C@H](O)CO)C[C@@H]1OC [Example 17, 4-amino-5-chloro-2-methoxy-N-((3S,4R)-3-methoxy-1-(2-(3-oxo ((8-oxo-8-(((2S,3R,4R,5R)-2,3,4,5,6-pentahydroxyhexyl)amino)octyl)amino)propoxy)ethyl)piperidin-4-yl)benzamide]
9 | 16.8 | COc1cc(N)c(Cl)cc1C(=O)N[C@@H]1CCN(CCCCCC(=O)N(C)[C@@H]2CCCN(CCCCCCCC(=O)NC[C@H](O)[C@@H](O)[C@H](O)[C@H](O)CO)C2)C[C@@H]1OC [Example 14, 4-amino-5-chloro-2-methoxy-N-((3S,4R)-3-methoxy-1-(6-(methyl((R)-1-(8-oxo-8-(((2S,3R,4R,5R)-2,3,4,5,6-pentahydroxyhexyl)amino)octyl)piperidin-3-yl)amino)-6-oxohexyl)piperidin-4-yl)benzamide]
10 | 28.6 | COc1cc(N)c(Cl)cc1C(=O)N[C@@H]1CCN(CCCCCC(=O)NCCCC(=O)NC[C@H](O)[C@@H](O)[C@H](O)[C@H](O)CO)C[C@@H]1OC [Example 4, 4-amino-5-chloro-2-methoxy-N-((3S,4R)-3-methoxy-1-(6-oxo-6-((4-oxo-4-(((2S,3R,4R,5R)-2,3,4,5,6-pentahydroxyhexyl)amino)butyl)amino)hexyl)piperidin-4-yl)benzamide]
11 | 28.7 | COc1cc(N)c(Cl)cc1C(=O)N[C@@H]1CCN(CCCCCC(=O)NCCCCCCCC(=O)N[C@H]2C[C@](O)(CO)[C@@H](O)[C@H](O)[C@H]2O)C[C@@H]1OC [Example 24, 4-amino-5-chloro-2-methoxy-N-((3S,4R)-3-methoxy-1-(6-oxo ((8-oxo-8-(((1S,2S,3R,4S,5S)-2,3,4,5-tetrahydroxy (hydroxymethyl)cyclohexyl)amino)octyl)amino)hexyl)piperidin-4-yl)benzamide]
12 | 1.7 | CO[C@H]1CN(CC2CCN(C(=O)CCCC(=O)NC[C@H](O)[C@@H](O)[C@H](O)[C@H](O)CO)CC2)CC[C@H]1NC(=O)c1cc(Cl)c(N)c2c1OCC2 [Example 43, 4-amino-5-chloro-N-((3S,4R)-3-methoxy-1-((1-(5-oxo-5-(((2S,3R,4R,5R)-2,3,4,5,6-pentahydroxyhexyl)amino)pentanoyl)piperidin-4-yl)methyl)piperidin-4-yl)-2,3-dihydrobenzofuran-7-carboxamide]
13 | 3.7 | Nc1c(Cl)cc(C(=O)NC2CCN(CCCCCC(=O)NC3CCN(CCCCCCCC(=O)NC[C@H](O)[C@@H](O)[C@H](O)[C@H](O)CO)CC3)CC2)c2c1CCO2 [Example 30, 4-amino-5-chloro-N-(1-(6-oxo-6-((1-(8-oxo-8-(((2S,3R,4R,5R)-2,3,4,5,6-pentahydroxyhexyl)amino)octyl)piperidin-4-yl)amino)hexyl)piperidin-4-yl)-2,3-dihydrobenzofuran-7-carboxamide]
14 | 22.2 | COc1cc(N)c(Cl)cc1C(=O)N[C@@H]1CCN(CCCCCC(=O)NCCOCCOCCOCCC(=O)NC[C@H](O)[C@@H](O)[C@H](O)[C@H](O)CO)C[C@@H]1OC [Example 6, 4-amino-5-chloro-2-methoxy-N-((3S,4R)-3-methoxy-1-((22S,23R,24R,25R)-22,23,24,25,26-pentahydroxy-6,19-dioxo-10,13,16-trioxa-7,20-diazahexacosyl)piperidin-4-yl)benzamide]
15 | 115 | COc1cc(N)c(Cl)cc1C(=O)N[C@@H]1CCN(CCCCCC(=O)NCCCCCCCC(=O)NCCP(=O)(O)O)C[C@@H]1OC [Example 25, (2-(8-(6-((3S,4R)-4-(4-amino-5-chloro-2-methoxybenzamido)-3-methoxypiperidin-1-yl)hexanamido)octanamido)ethyl)phosphonic acid]
16 | 77 | COc1cc(N)c(Cl)cc1C(=O)N[C@@H]1CCN(CC(C)CCCC(=O)NCCCCCCCC(=O)NC[C@H](O)[C@@H](O)[C@H](O)[C@H](O)CO)C[C@@H]1OC (stereo partly drawn) [Example 19, 4-amino-5-chloro-2-methoxy-N-((3S,4R)-3-methoxy-1-(2-methyloxo-6-((8-oxo-8-(((2S,3R,4R,5R)-2,3,4,5,6-pentahydroxyhexyl)amino)octyl)amino)hexyl)piperidin-4-yl)benzamide]
